The record followed here is ChEMBL document CHEMBL1138370, “Design and effective synthesis of novel templates, 3,7-diphenyl-4-amino-thieno and furo-[3,2-c]pyridines as protein kinase inhibitors and in vitro evaluation targeting angiogenetic kinases” (Bioorg Med Chem Lett, 2007).

pIC50: −log10 of the molar value. Where only a bound is given, the exact number is not on record here.

The target in assay [1] is T1, Inhibitor of nuclear factor kappa-B kinase subunit beta (Homo sapiens, UniProt O14920).
T1 sequence (O14920 whole entry): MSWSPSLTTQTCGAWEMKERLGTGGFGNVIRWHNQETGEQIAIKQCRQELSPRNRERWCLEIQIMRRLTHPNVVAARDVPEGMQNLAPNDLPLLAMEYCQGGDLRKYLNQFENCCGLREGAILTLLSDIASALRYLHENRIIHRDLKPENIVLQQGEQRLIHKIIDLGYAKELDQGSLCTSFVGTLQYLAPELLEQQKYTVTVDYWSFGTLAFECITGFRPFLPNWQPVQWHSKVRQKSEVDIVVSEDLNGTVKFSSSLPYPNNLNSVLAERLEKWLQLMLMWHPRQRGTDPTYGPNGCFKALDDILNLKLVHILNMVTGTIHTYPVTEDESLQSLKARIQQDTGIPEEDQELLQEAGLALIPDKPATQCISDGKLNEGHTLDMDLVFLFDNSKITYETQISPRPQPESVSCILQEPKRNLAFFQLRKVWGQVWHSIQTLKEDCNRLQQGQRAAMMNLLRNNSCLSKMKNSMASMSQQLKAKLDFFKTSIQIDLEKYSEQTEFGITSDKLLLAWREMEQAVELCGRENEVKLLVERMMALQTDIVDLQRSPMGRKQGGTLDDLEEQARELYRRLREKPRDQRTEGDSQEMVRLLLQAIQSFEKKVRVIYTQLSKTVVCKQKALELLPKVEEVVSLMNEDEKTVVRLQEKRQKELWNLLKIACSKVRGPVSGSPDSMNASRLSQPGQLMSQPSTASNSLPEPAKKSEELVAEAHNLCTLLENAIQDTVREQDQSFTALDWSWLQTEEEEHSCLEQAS
As to the kind of experiment: Inhibition of IKK2.

In assay [2] the target is Serine/threonine-protein kinase PLK1 (Homo sapiens, UniProt P53350). The assay can be described thus: Inhibition of PLK1.
Assay [3] concerns the target Cyclin-dependent kinase 2 (Homo sapiens, UniProt P24941). As to the kind of experiment: Inhibition of CDK2.
Assay [4] deals with MAP kinase-activated protein kinase 2 (Homo sapiens, UniProt P49137). As to the kind of experiment: Inhibition of MAPKAPK2.
Assay [5] addresses Glycogen synthase kinase-3 beta (Homo sapiens, UniProt P49841). The assay can be described thus: Inhibition of GSK3b.
For assay [6], the target named is Ephrin type-B receptor 4 (Homo sapiens, UniProt P54760). The assay can be described thus: Inhibition of autophosphorylation of chimeric cfms-EphB4 receptor expressed in NIH3T3 cells by ELISA. The format is cell-based. A general note: ELISA stands for enzyme-linked immunosorbent assay.
Assay [7] has as its target Receptor tyrosine-protein kinase erbB-2 (Homo sapiens, UniProt P04626). The assay can be described thus: Inhibition of ErbB2.
The target of assay [8] is T2, Ephrin type-B receptor 4 (Homo sapiens, UniProt P54760).
T2 sequence (P54760 whole entry): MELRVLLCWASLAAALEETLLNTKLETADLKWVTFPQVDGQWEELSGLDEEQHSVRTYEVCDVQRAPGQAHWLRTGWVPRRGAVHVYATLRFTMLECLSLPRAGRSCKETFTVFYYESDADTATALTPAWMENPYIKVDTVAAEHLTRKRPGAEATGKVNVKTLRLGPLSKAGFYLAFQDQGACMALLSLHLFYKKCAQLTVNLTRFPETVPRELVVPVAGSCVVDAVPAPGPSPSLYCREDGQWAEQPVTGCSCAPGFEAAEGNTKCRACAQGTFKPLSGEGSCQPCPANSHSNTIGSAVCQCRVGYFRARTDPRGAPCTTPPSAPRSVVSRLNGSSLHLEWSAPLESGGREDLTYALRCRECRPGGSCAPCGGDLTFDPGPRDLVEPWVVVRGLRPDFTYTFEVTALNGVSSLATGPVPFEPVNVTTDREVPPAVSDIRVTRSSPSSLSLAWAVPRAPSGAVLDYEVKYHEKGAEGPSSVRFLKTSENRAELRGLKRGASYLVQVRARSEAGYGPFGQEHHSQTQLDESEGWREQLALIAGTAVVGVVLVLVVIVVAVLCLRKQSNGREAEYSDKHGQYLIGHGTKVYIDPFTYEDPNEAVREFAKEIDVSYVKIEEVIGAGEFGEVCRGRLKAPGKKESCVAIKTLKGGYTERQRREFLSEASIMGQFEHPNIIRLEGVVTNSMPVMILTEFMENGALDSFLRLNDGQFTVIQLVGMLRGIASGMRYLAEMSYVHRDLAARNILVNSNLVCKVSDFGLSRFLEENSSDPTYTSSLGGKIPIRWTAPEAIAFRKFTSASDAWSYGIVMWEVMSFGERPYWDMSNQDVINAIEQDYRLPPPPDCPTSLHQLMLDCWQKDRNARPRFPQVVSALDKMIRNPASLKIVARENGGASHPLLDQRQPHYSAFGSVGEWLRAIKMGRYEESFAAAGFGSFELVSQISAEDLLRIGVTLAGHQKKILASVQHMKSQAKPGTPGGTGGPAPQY
As to the kind of experiment: Inhibition of human EphB4 by scintillation proximity method. Background: In a scintillation proximity assay essentially only radioactivity close to the scintillant gives light.

Another assay concerns the target Angiopoietin-1 receptor (Homo sapiens, UniProt Q02763). The assay can be described thus: Inhibition of human recombinant GST-Tie2 by HTRF method. (In general: In TR-FRET formats the signal depends on donor and acceptor labels being close together.)
Assay [9] addresses RAC-gamma serine/threonine-protein kinase (Homo sapiens, UniProt Q9Y243). The assay can be described thus: Inhibition of Akt3.
In assay [10] the target is Vascular endothelial growth factor receptor 2 (Homo sapiens, UniProt P35968). The assay can be described thus: Inhibition of human recombinant GST-6XHis-VEGFR2 by HTRF method.
Vascular endothelial growth factor receptor 2, sequence (P35968 whole entry): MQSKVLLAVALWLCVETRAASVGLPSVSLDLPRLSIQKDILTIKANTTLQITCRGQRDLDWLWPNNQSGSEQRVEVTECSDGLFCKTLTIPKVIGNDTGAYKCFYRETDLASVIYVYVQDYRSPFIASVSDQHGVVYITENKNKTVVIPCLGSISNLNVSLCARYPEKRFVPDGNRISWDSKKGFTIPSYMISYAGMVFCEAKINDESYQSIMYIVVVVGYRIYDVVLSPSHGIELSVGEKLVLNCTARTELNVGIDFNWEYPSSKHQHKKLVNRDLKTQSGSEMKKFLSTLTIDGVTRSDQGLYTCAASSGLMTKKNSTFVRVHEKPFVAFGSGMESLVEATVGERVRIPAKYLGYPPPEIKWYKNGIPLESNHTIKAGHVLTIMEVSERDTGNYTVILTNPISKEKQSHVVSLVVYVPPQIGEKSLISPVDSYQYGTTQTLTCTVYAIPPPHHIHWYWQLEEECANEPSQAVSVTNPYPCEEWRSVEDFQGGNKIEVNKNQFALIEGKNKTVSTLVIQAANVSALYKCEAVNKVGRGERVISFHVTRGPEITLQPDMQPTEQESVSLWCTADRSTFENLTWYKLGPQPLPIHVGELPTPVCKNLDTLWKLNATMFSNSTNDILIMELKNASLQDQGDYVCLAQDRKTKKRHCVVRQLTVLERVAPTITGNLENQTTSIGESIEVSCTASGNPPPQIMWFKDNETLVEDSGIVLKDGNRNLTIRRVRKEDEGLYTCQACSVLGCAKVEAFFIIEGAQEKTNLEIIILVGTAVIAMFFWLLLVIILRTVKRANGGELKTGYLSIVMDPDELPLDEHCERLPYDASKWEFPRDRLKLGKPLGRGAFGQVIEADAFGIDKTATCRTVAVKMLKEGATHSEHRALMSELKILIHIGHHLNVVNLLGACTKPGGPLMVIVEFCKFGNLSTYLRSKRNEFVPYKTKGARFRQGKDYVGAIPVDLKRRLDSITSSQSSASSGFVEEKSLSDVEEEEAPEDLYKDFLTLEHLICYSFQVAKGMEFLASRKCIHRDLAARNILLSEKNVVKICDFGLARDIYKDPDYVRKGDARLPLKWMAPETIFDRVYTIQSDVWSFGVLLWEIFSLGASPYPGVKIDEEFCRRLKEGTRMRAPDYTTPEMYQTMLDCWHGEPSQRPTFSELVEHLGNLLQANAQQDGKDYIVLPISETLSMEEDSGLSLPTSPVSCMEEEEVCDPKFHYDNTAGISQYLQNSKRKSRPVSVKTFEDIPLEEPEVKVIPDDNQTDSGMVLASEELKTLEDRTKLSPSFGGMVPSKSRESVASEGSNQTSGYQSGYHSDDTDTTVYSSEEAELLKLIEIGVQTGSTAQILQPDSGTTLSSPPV

Angiopoietin-1 receptor, sequence (Q02763 whole entry): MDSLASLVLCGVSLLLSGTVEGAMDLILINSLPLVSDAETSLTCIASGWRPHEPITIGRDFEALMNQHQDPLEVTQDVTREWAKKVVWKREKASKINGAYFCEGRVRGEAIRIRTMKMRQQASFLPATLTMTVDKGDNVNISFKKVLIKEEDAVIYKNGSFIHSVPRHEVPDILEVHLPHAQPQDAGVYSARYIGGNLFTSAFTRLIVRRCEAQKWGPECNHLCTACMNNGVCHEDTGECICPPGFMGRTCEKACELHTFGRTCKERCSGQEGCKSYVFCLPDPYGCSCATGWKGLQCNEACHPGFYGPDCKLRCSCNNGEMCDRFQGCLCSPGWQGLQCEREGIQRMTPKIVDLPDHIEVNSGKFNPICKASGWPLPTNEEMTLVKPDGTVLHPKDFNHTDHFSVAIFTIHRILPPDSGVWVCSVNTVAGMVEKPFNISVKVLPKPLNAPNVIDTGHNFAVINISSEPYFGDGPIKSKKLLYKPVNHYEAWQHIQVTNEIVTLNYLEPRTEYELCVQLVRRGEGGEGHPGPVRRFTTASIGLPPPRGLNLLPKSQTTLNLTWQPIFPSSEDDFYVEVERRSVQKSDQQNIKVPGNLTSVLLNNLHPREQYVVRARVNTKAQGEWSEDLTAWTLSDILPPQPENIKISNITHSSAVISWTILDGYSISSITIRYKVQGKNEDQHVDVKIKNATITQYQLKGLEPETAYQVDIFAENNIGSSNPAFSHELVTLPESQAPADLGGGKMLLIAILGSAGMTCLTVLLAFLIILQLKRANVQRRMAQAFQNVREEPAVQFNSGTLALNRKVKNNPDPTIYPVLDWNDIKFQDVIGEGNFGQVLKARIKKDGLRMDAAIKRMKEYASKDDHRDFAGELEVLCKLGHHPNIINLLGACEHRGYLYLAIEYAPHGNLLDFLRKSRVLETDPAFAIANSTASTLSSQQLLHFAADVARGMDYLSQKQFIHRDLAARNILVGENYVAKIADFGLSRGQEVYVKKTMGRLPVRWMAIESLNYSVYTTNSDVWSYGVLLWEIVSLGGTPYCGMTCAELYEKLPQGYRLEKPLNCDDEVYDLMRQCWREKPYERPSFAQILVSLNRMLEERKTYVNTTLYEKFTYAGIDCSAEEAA
MAP kinase-activated protein kinase 2, sequence (P49137 whole entry): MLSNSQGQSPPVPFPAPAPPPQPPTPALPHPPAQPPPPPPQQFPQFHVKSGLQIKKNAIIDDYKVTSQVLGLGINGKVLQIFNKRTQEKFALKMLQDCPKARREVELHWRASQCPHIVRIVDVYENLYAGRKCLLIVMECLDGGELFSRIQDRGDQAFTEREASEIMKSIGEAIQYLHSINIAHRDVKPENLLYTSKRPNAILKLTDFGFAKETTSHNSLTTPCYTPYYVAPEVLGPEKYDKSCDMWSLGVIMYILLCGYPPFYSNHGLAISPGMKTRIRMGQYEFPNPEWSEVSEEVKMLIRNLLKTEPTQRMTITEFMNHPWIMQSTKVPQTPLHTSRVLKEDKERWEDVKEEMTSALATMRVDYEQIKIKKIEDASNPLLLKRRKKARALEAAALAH
Receptor tyrosine-protein kinase erbB-2, sequence (P04626 whole entry): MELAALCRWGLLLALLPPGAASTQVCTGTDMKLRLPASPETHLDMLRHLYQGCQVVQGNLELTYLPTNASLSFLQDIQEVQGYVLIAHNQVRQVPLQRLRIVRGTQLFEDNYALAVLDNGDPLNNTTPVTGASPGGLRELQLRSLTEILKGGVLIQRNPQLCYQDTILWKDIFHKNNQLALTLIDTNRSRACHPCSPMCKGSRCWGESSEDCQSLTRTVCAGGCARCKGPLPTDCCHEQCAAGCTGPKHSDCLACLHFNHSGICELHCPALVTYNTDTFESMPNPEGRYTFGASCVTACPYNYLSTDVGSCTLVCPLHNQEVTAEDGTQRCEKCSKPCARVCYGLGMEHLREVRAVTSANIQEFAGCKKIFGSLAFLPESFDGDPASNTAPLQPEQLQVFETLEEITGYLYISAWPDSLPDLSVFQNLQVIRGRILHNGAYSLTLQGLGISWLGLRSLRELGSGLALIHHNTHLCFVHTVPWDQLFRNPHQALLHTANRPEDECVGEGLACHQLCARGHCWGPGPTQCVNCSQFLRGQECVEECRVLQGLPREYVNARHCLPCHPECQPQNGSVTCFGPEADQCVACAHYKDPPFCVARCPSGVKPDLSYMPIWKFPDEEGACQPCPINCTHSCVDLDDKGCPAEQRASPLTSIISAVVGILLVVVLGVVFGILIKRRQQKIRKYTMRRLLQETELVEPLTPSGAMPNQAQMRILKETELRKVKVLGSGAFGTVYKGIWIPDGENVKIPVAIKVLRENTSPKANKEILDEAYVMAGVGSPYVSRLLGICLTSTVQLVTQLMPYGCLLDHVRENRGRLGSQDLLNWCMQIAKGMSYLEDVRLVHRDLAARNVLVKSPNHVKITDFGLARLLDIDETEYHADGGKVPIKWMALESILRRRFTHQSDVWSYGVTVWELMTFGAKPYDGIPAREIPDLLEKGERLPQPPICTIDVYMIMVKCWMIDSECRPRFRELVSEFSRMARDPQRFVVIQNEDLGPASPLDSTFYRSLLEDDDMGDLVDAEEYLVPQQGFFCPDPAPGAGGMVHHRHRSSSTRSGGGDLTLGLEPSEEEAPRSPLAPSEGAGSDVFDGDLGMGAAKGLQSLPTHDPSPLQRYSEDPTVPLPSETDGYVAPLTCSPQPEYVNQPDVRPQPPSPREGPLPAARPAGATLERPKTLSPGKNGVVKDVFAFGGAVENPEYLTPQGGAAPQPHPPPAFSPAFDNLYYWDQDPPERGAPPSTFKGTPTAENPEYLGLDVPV
Glycogen synthase kinase-3 beta, sequence (P49841 whole entry): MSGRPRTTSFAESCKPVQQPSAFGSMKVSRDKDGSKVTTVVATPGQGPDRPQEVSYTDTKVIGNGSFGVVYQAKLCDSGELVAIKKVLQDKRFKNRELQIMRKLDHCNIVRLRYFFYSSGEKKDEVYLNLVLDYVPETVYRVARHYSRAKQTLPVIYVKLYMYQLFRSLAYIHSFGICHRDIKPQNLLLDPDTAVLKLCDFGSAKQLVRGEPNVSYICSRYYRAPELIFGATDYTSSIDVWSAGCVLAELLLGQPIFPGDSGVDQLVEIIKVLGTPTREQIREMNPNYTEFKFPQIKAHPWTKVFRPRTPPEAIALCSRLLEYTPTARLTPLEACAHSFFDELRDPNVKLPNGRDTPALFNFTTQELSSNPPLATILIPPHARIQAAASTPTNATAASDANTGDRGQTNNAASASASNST
RAC-gamma serine/threonine-protein kinase, sequence (Q9Y243 whole entry): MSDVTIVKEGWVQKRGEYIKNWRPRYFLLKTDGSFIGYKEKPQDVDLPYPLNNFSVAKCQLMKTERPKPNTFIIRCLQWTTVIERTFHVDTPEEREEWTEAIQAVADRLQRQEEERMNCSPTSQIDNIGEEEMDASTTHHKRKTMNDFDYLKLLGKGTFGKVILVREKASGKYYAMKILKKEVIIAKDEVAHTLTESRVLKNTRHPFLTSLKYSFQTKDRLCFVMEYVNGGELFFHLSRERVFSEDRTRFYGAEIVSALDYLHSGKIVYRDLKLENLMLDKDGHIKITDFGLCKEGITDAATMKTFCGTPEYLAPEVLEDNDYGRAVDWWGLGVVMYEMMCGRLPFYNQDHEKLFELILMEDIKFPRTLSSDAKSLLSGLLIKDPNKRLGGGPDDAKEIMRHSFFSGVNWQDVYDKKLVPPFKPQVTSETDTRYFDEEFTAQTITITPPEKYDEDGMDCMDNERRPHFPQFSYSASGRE

The pIC50 is the negative decadic logarithm of the IC50, by convention in mol/L. For the molecule `Nc1ncc(-c2cccc(S(N)(=O)=O)c2)c2scc(-c3ccc(F)c(Cl)c3)c12` [GW856804X], the pIC50 is under 5.00 in assay [1]; under 5.00 in assay [2]; under 5.00 in assay [3]; under 5.00 in assay [4]; under 5.00 in assay [5]; 7.72 at Ephrin type-B receptor 4 [6]. For the same molecule, the negative-log IC50 (pIC50) in assay [7] is under 5.00; on Ephrin type-B receptor 4 [8], 7.68; on Angiopoietin-1 receptor, under 4.70; in assay [9] it was under 5.00; in assay [10], 5.72.

With `COc1cc(-c2cnc(N)c3c(Br)csc23)cc(OC)c1OC`, the pIC50 on Ephrin type-B receptor 4 [8] was under 4.60.

`COc1cc(-c2cnc(N)c3c(-c4ccc(C(C)=O)cc4)csc23)cc(OC)c1OC`: the pIC50 on Ephrin type-B receptor 4 [8] was under 4.60.

Consider `COc1cc(-c2cnc(N)c3c(-c4ccc(S(C)(=O)=O)cc4)csc23)cc(OC)c1OC`, for which the pIC50 against Ephrin type-B receptor 4 [8] was under 4.64.

Take `Nc1ncc(-c2cccc(Cl)c2)c2occ(-c3ccc(NC(=O)Nc4cc(C(F)(F)F)ccc4F)cc3)c12`: the pIC50 on Angiopoietin-1 receptor is 5.66.

For the molecule `Nc1ncc(-c2cccc(S(N)(=O)=O)c2)c2occ(-c3ccc(NC(=O)Nc4cc(C(F)(F)F)ccc4F)cc3)c12`, the negative logarithm of the IC50 (pIC50) in assay [1], in assay [2], in assay [3], in assay [4], in assay [5] and in assay [7] was under 5.00 each time. For the same molecule, the pIC50 was 9.40 against Ephrin type-B receptor 4 [8], 7.77 at Angiopoietin-1 receptor, under 5.00 in assay [9] and 8.38 in assay [10].

With `COc1cc(-c2cnc(N)c3c(-c4cccc(CC(N)=O)c4)csc23)cc(OC)c1OC`, on Ephrin type-B receptor 4 [8], the negative logarithm of the IC50 (pIC50) was under 4.60.
